Experimental data reported in patent US4708964A, “Lipoxygenase inhibitors” (Chemex Pharmaceuticals, priority 1984, dated 1987).
Like-named read-outs stand apart in the source and are kept apart here.

Target: T1, soybean lipoxidase type V (Glycine max, UniProt P08170)
T1 sequence (P08170 1-839): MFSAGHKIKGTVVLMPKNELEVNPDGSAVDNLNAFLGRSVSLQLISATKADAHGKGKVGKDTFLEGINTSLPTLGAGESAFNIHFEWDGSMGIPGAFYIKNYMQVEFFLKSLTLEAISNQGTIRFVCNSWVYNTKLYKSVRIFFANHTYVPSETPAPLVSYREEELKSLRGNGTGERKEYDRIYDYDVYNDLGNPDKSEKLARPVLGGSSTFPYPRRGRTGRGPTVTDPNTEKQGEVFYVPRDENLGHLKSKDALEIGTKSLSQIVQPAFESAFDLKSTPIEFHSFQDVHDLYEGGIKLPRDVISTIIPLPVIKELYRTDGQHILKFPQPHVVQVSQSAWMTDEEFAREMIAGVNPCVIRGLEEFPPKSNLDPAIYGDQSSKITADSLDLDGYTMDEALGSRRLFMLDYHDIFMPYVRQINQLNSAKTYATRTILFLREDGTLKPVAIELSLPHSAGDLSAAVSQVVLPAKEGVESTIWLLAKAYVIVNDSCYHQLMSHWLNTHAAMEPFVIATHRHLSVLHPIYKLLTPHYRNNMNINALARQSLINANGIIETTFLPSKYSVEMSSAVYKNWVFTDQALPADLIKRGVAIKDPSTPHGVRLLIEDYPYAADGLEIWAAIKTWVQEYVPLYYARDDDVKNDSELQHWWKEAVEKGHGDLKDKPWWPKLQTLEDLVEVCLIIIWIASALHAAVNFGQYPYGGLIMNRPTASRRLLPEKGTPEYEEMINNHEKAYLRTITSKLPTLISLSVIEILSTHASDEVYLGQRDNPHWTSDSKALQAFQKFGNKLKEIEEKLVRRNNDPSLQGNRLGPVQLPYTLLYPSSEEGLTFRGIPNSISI
Conditions: for A234 nm/min.: 25° C., 0.1M borate pH 9

Structure (SMILES)	A234 nm/min. (NDGA 1.3 × 10^-4 M) [min⁻¹]	A234 nm/min. (NDGA 2.6 × 10^-4 M) [min⁻¹]	A234 nm/min. (NDGA 3.2 × 10^-4 M) [min⁻¹]	A234 nm/min. (NDGA 3.9 × 10^-4 M) [min⁻¹]	inhibition at 130 µM (pH 9) [%]	inhibition at 260 µM (pH 9) [%]	inhibition at 320 µM (pH 9) [%]	A234 nm/min. (alpha-Naphthol 2.5 × 10^-5 M)	A234 nm/min. (alpha-Naphthol 6.2 × 10^-5 M)	A234 nm/min. (alpha-Naphthol 7.5 × 10^-5 M)	A234 nm/min. (alpha-Naphthol 8.8 × 10^-5 M)	A234 nm/min. (alpha-Naphthol 12.5 × 10^-5 M)	inhibition at 25 µM (pH 9) [%]	inhibition at 62 µM (pH 9) [%]	inhibition at 75 µM (pH 9) [%]	inhibition at 88 µM (pH 9) [%]	inhibition at 125 µM (pH 9) [%]
CC(Cc1ccc(O)c(O)c1)C(C)Cc1ccc(O)c(O)c1 (centres unmarked) [NDGA, nordihydroguaiaretic acid]	0.217	0.186	0.100	0.035	1	14	54										
Oc1cccc2ccccc12 [alpha-Naphthol, alpha-naphthol]								.230 min⁻¹	.141 min⁻¹	.074 min⁻¹	.069 min⁻¹	.021 min⁻¹	12	46	72	74	92
